According to US4748179A, “β-carbolin-3-carboxylic acid derivatives and their use as benzodiazepine antagonists” (Schering Aktiengesellschaft, priority 1983, dated 1988):

Experiments:
[1] = target: benzodiazepine receptors; assay: Displacement of 3H-flunitrazepam specific binding in vitro, rat forebrain membrane suspension; conditions: 3H-flunitrazepam 1.0 nM, 0° C., pH 7.1
[2] = tested on: pentazole-induced convulsions; assay: Antagonism of pentazole-induced convulsions; type: in vivo; conditions: ip; read-out: Antagonism of pentazole-induced convulsions ED50 i.p.
Description: The antagonism of pentazole induced convulsions was investigated.
The test has been performed according to known test models in pharmacology,e.g., as described in R. A. Turner, Screening Methods in Pharmacology, Academic Press, N.Y. and London 1965, esp. p. 164 ff. or Woodbury, P. M., Perry, I. K. and Schmidt, R. P. Antiepileptic Drugs, Raven Press, N.Y. 1972.

[3] = Inhibition of motor coordination (ataxia); type: in vivo; conditions: mouse, sc, mice, 30 minutes after subcutaneous administration, read-out: Inhibition of/Ataxia (motor-incoordination)
Procedure: The inhibition of motor coordination in mice was also studied 30 minutes after subcutaneous administration in accordance with a method described in the litterature (Buus Lassen et al., Acta Pharmacol. et Toxicol., 1971, 39, 1-16).

[4] = tested on: benzodiazepine receptors; assay: In vivo displacement of 3H-flunitrazepam binding to benzodiazepine receptors in living brain; conditions: mice, usually subcutaneously, 3H-flunitrazepam i.v. 15 minutes later
Description: The pharmaceutical properties of the compounds of the invention have been investigated by determining their capability for displacing radioactively labelled flunitrazepam from such benzodiazepine receptors, and their ability to antagonize pentazole induced convulsions.
The displacement activity of the compounds of the invention has been determined by determining the IC50 value and ED50 value.
The ED50 value represents the dose (mg/kg) of a test substance which causes the specific binding of flunitrazepam to benzodiazepine receptors in a living brain to be reduced to 50% of the control value. Such an in vivo test is carried out as follows:
Groups of mice are injected with the test substance at different doses and usually subcutaneously. 15 minutes later ^3 H-flunitrazepam is giving intravenously to the mice and after further 20 minutes the mice are killed, […]. The ED50 value is determined from dose-response curves.

[5] = tested on: lorazepam-induced ataxia in NMRI mice; assay: Antagonism of benzodiazepine (lorazepam) action in motor incoordination, rotating rod; type: in vivo
Procedure: Antagonism of benzodiazepine action in motor incoordination.
NMRI mice (20-25 g) were placed on a horizontal wooden rod (diameter 4.3 cm), rotating at a rate of 6 min^-1, 8 cm above the bench. […] The ability of the compounds of this invention to antagonize the effect of benzodiazepine in motor coordination has been determined by determining the ED50 -value. […] The test was performed as follows:
At least 3 groups of mice (8 mice in each group) were injected intraperitoneally with 2 mg/kg lorazepam. 15 minutes later each group of mice were injected with different doses of the test compounds and after further 15 minutes the test for ataxia was performed. Based on the data obtained the ED50 -value was calculated.

[6] = tested on: pentazole-induced seizures in diazepam-treated NMRI mice; assay: Antagonism of benzodiazepine (diazepam) action on pentazole-induced seizures; type: in vivo; conditions: i.p., against 5 mg/kg diazepam i.p.; pentazole 150 mg/kg s.c.; clonic seizures in 50% of animals
Procedure: Antagonism of Benzodiazepine action on pentazol-induced seizures in NMRI mice (20-25 g).
15 minutes later each group of mice were injected intraperitoneally with different doses of the test compounds and after further 15 minutes the mice received 150 mg/kg pentazol, administered subcutaneously. Clonic seizures within the next 30 minutes were noted. Based on the data obtained the ED50 value was calculated.

CCOC(=O)c1ncc2[nH]c3cccc(OC)c3c2c1CC [CH3, CH3 CH2, 4-Ethyl-5-methoxy-β-carboline-3-carboxylic acid ethylester]
3H-flunitrazepam binding in vitro IC50 [1]: 1.4 ng/mL
ED50 [2]: > 100 mg/kg
ED50 at 0.5 h [3]: > 100 mg/kg
3H-flunitrazepam binding in vivo ED50 [4]: 3.0 mg/kg

CCOC(=O)c1ncc2[nH]c3cccc(OC(C)C)c3c2c1C [(CH3)2 CH, CH3, 5-isopropoxy-4-methyl-β-carboline-3-carboxylic acid ethylester]
3H-flunitrazepam binding in vitro IC50 [1]: 0.6 ng/mL
ED50, antagonism of benzodiazepine action in motor incoordination ([5]; against 2 mg/kg lorazepam i.p., ataxia in 50% of animals, compound 15 minutes after lorazepam): 1.0 mg/kg
ED50 [2]: > 100 mg/kg
ED50 at 0.5 h [3]: > 100 mg/kg
3H-flunitrazepam binding in vivo ED50 [4]: 0.3 mg/kg
ED50, antagonism of benzodiazepine action on pentazole-induced seizures [6]: 0.7 mg/kg

O=C1Nc2ccc(Cl)cc2C(c2ccccc2Cl)=NC1O (centres unmarked) [Lorazepam, reference compound]
3H-flunitrazepam binding in vitro IC50 [1]: 1 ng/mL
induction of ataxia (more than three falls from the rod within 2 min) ([5]; 2 mg/kg i.p. 30 min before test): induced ataxia in all animals
ED50 [2]: 0.1 mg/kg
ED50 at 0.5 h [3]: 0.3 mg/kg
3H-flunitrazepam binding in vivo ED50 [4]: 0.2 mg/kg

CCOC(=O)c1cc2c(cn1)[nH]c1cccc(OC(C)C)c12 [(CH3)2 CH, H, 5-Isopropoxy-β-carboline-3-carboxylic acid ethylester]
3H-flunitrazepam binding in vitro IC50 [1]: 0.4 ng/mL
ED50 [2]: > 100 mg/kg
ED50 at 0.5 h [3]: > 100 mg/kg
3H-flunitrazepam binding in vivo ED50 [4]: 6.4 mg/kg

CN1C(=O)CN=C(c2ccccc2)c2cc(Cl)ccc21 [Diazepam, reference compound]
3H-flunitrazepam binding in vitro IC50 [1]: 3 ng/mL
ED50 [2]: 3 mg/kg
ED50 at 0.5 h [3]: 3 mg/kg
3H-flunitrazepam binding in vivo ED50 [4]: 1.5 mg/kg
